The target in one assay is canine TRPM8 (Canis lupus familiaris, UniProt Q1A7N1). The experiment in a line: In Vitro Canine TRPM8 Functional Assay (Ca2+ fluorescence, icilin activation). The settings on record: for IC50: read-out: IC50; for inhibition at 0.2 µM: read-out: % Inh @ 0.2. In kind it is cell-based. In short, it runs like this:
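Eight-point dose-response curves, each point averaging quadruplicate wells, gave EC50 or IC50. Canine TRPM8-expressing HEK293 cells, dye-loaded (Calcium 3), were pre-exposed 5 min to compound, then challenged with icilin at roughly EC80; intracellular Ca2+ read by FLIPR or FDSS fluorescence.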

Another assay has as its system Male Sprague Dawley rats. Put plainly: Chronic Constriction Injury (CCI)-Induced Model of Neuropathic Pain, Acetone-Induced Hypersensitivity. In kind it is in vivo, rat. The settings on record: Rattus norvegicus, po, Na salt form; for inhibition in vivo at 30 mg/kg: 30 mg/kg p.o.; for inhibition in vivo at 10 mg/kg: 10 mg/kg p.o. From the text: Male Sprague Dawley rats (225-450 g; n=5-8/treatment) were used to evaluate the ability of selected compounds of the formula (I) to reverse CCI-induced cold hypersensitivity. Four loose ligatures of 4-0 chromic gut were surgically placed around the left sciatic nerve under inhalation anesthesia as described by Bennett et al (Bennett G J, Xie Y K. Pain 1988, 33(1): 87-107). Fourteen to 35 days following CCI surgery, subjects were placed in elevated observation chambers containing wire mesh floors and five applications of acetone (0.05 mL/application separated by approximately 5 minutes) were spritzed onto the plantar surface of the paw using a multidose syringe. An abrupt withdrawal or lifting of the paw was considered a positive response. The number of positive responses was recorded for each rat over the five trials. Following baseline withdrawal determinations, compounds of formula (I) are administered in an appropriate vehicle, such as hydroxypropyl-β-cyclodextrin (HP β CD), methylcellulose, Methocel, 10% Solutol, or H2O, or the like, by the appropriate route, i.p. or p.o. […] Results are presented as a percent inhibition of […], which was calculated for each subject as [1−(test compound withdrawals/pre-test withdrawals)]×100 and then averaged by treatment.

The mark [1] stands for this setting: HEK293 cells stably expressing canine TRPM8, icilin activation, eight-point dose-response.
Where [2] appears, read: compound at 0.2 μM, canine TRPM8, icilin activation.
Where [3] appears, read: 3 h, Water, pretreatment 3 hr, read-out: Percent Inhibition.
Setting [4] is: 4 h, Water, pretreatment 4 hr, read-out: Percent Inhibition.
[5] abbreviates: 3 h, HPbCD, pretreatment 3 hr, read-out: Percent Inhibition.
The mark [6] stands for this setting: 0.2 μM compound, HEK293 cells stably expressing canine TRPM8, icilin activation.
[7] abbreviates: HEK293 cells stably expressing canine TRPM8, icilin activation, average of two or more determinations.
[8] abbreviates: compound at 0.5 μM, canine TRPM8, icilin activation.

Where two headings read alike, the source gives them in different places.

Chain of canine TRPM8 (Q1A7N1 1-1104): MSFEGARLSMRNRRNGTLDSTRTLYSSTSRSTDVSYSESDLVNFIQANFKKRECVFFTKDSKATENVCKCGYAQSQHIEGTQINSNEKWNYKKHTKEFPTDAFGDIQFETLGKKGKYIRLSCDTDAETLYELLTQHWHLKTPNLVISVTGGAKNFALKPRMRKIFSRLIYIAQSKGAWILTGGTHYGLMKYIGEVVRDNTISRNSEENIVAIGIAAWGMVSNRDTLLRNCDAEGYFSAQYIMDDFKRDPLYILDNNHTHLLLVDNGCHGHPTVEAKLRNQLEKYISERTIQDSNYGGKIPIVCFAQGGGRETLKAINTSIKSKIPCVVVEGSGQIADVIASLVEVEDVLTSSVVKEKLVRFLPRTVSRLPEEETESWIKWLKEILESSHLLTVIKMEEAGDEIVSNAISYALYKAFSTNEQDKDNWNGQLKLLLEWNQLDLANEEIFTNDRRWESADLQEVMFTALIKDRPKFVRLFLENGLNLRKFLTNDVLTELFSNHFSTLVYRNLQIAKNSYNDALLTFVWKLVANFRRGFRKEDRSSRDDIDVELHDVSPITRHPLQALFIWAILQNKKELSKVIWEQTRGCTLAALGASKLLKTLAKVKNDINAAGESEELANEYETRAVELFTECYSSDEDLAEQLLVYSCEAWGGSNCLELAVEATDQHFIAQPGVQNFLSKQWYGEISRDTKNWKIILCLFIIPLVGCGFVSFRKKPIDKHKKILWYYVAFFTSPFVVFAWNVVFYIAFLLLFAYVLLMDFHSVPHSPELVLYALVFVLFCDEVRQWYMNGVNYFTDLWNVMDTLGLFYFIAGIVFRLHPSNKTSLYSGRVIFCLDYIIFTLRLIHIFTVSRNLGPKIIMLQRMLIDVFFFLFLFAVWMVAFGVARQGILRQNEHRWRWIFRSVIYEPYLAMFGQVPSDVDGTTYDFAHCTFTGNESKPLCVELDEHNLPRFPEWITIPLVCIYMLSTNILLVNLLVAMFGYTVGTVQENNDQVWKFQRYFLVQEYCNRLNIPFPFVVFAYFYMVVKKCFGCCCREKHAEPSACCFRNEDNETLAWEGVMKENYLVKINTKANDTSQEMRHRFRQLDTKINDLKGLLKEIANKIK

Regarding `O=C(O)c1ccc(S(=O)(=O)N(Cc2ccc(F)c(C(F)(F)F)c2)c2sc3ccccc3c2Br)cc1` [Compound 292, N-(3-Bromo-benzo[b]thiophen-2-yl)-N-(4-fluoro-3-trifluoromethyl-benzyl)-4-carboxy-benzenesulfonamide], the 50% inhibitory concentration (IC50) on canine TRPM8 (setting [1]) stood at 0.8 nM. In addition, on canine TRPM8 (setting [2]), the inhibition at 0.2 µM is 98%. Also, the inhibition at 0.5 µM at canine TRPM8 (compound at 0.5 μM, canine TRPM8, icilin activation, read-out: % Inh @ 0.5) was found to be 100%. For the same compound, in the assay with Male Sprague Dawley rats (2 h, Water, pretreatment 2 hr, read-out: Percent Inhibition), the inhibition in vivo at 30 mg/kg stood at 60%. For the same compound, in the assay on Male Sprague Dawley rats (3 h, 3 mg/kg p.o., Water, pretreatment 3 hr, read-out: Percent Inhibition), the inhibition in vivo at 3 mg/kg is 7%. Also, in the assay with Male Sprague Dawley rats (setting [3]), the inhibition in vivo at 10 mg/kg was found to be 16% and the inhibition in vivo at 30 mg/kg amounted to 21%. For the same compound, in the assay on Male Sprague Dawley rats (3 h, 100 mg/kg p.o., Water, pretreatment 3 hr, read-out: Percent Inhibition), the inhibition in vivo at 100 mg/kg worked out at 67%. In addition, the median effective dose (ED50) in the assay on Male Sprague Dawley rats (Water, pretreatment 3 hr) amounted to 70 mg/kg.
Take `O=C(O)c1ccc(S(=O)(=O)N(CCC2CC2)c2sc3ccccc3c2Br)cc1` [Compound 396, N-(3-Bromo-benzo[b]thiophen-2-yl)-N-(2-cyclopropylethyl)-4-carboxy-benzenesulfonamide]: the IC50 on canine TRPM8 (setting [1]) turned out to be 5 nM. Moreover, the inhibition at 0.2 µM on canine TRPM8 (setting [2]) was determined as 101%. The inhibition in vivo at 30 mg/kg with Male Sprague Dawley rats (setting [4]) is 50%.
As to `Cc1c(N(Cc2ccc(F)cc2)S(=O)(=O)c2ccc(C(=O)O)cc2)sc2ccccc12` [Compound 487, N-(3-Methyl-benzo[b]thiophen-2-yl)-N-(4-fluoro-benzyl)-4-carboxy-benzenesulfonamide], the IC50 at canine TRPM8 (setting [1]) is 2 nM. Moreover, the inhibition at 0.2 µM at canine TRPM8 (setting [2]) turned out to be 101%. For the same compound, in the assay with Male Sprague Dawley rats (setting [5]), the inhibition in vivo at 10 mg/kg was found to be 43% and the inhibition in vivo at 30 mg/kg turned out to be 66%.
Regarding `Cc1c(N(Cc2ccc(F)c(F)c2)S(=O)(=O)c2ccc(C(=O)O)cc2)sc2ccccc12` [Compound 488, N-(3-Methyl-benzo[b]thiophen-2-yl)-N-(3,4-difluoro-benzyl)-4-carboxy-benzenesulfonamide], the IC50 on canine TRPM8 (setting [1]) was 1 nM. Besides, at canine TRPM8 (setting [2]), the inhibition at 0.2 µM was 101%. The inhibition in vivo at 30 mg/kg with Male Sprague Dawley rats (2 h, HPbCD, pretreatment 2 hr, read-out: Percent Inhibition) was found to be 43%.
For the compound `Cc1c(N(Cc2ccc(F)c(Cl)c2)S(=O)(=O)c2ccc(C(=O)O)cc2)sc2ccccc12` [Compound 489, N-(3-Methyl-benzo[b]thiophen-2-yl)-N-(4-fluoro-3-chloro-benzyl)-4-carboxy-benzenesulfonamide], the concentration for half-maximal inhibition (IC50) on canine TRPM8 (setting [1]) amounted to 0.6 nM. Moreover, the inhibition at 0.2 µM at canine TRPM8 (setting [2]) came out at 101%. Moreover, in the assay with Male Sprague Dawley rats (setting [3]), the inhibition in vivo at 30 mg/kg came out at 86%. Besides, in the assay with Male Sprague Dawley rats (setting [4]), the inhibition in vivo at 10 mg/kg was 13% and the inhibition in vivo at 30 mg/kg came to 57%. Moreover, the inhibition in vivo at 17.8 mg/kg with Male Sprague Dawley rats (4 h, 17.8 mg/kg p.o., Water, pretreatment 4 hr, read-out: Percent Inhibition) is 60%. Besides, in the assay on Male Sprague Dawley rats (4 h, 56 mg/kg p.o., Water, pretreatment 4 hr, read-out: Percent Inhibition), the inhibition in vivo at 56 mg/kg turned out to be 70%. The 50% effective dose (ED50) in the assay with Male Sprague Dawley rats (Water, pretreatment 4 hr) amounted to 23 mg/kg.
In the case of `Cc1c(N(Cc2ccc(OC(F)F)cc2)S(=O)(=O)c2ccc(C(=O)O)cc2)sc2ccccc12` [Compound 490, N-(3-Methyl-benzo[b]thiophen-2-yl)-N-(4-difluoromethoxy-benzyl)-4-carboxy-benzenesulfonamide], the 50% inhibitory concentration (IC50) at canine TRPM8 (setting [1]) amounted to 1 nM. In addition, the inhibition at 0.2 µM at canine TRPM8 (setting [2]) was 101%. Further, the inhibition in vivo at 30 mg/kg in the assay on Male Sprague Dawley rats (1 h, HPbCD, pretreatment 1 hr, read-out: Percent Inhibition) is 23%.
Regarding `Cc1c(N(Cc2ccccc2)S(=O)(=O)c2ccc(OCc3ccccc3)c(F)c2)sc2ccccc12` [Compound 846, N-(Benzyl)-4-benzyloxy-3-fluoro-N-(3-methyl-benzo[b]thiophen-2-yl)-benzenesulfonamide], the inhibition at 0.2 µM on canine TRPM8 (setting [6]) was determined as 28%.
On the same count and under the same terms, the same measure for `CCS(=O)(=O)N(Cc1ccnc(F)c1)c1cc2ccccc2s1` [Compound 847, N-(Benzo[b]thiophen-2-yl)-N-(2-fluoro-pyridin-4-ylmethyl)-ethane-sulfonamide]: 33%; for `CCS(=O)(=O)N(Cc1ccnc(F)c1)c1sc2ccccc2c1C(C)=O` [Compound 848, N-(3-Acetyl-benzo[b]thiophen-2-yl)-N-(2-fluoro-pyridin-4-ylmethyl)-ethansulfonamide]: 68%; for `CCCCNS(=O)(=O)N(CCCC)c1sc2ccccc2c1Br` [Compound 849, N-(3-Bromo-benzo[b]thiophen-2-yl)-N,N′-bis-butyl-sulfamide]: 25%.
On to `CCCCNS(=O)(=O)N(CCCC)c1cc2ccccc2s1` [Compound 850, N-Benzo[b]thiophen-2-yl-N,N′-bis-butyl-sulfamide], for which the inhibition at 0.2 µM on canine TRPM8 (setting [6]) was found to be 28%.
In the case of `O=C(Nc1ccc(S(=O)(=O)N(CCC2CC2)c2sc3ccccc3c2Cl)cc1)C(F)(F)F` [Cpd 694, N-(3-Chloro-benzo[b]thiophen-2-yl)-N-(2-cyclopropyl-ethyl)-4-trifluoroacetamido-benzenesulfonamide], the inhibition at 0.2 µM at canine TRPM8 (setting [2]) came out at 42%.
Regarding `O=S(=O)(c1ccccc1)N(CCCF)c1sc2ccccc2c1CO` [Cpd 820], the “% Inh @ 0.2 (μM)” value on canine TRPM8 (setting [6]) is 102%. In addition, the IC50 at canine TRPM8 (setting [7]) turned out to be 28 nM.
Regarding “N-(3,4-Difluoro-benzyl)-N-thieno[3,2-b]pyridin-2-yl-benzenesulfonamide [Compound 146]”, the half-maximal inhibitory concentration (IC50) at canine TRPM8 (setting [1]) was 48 nM. Further, the “% Inh @ 0.5 (μM)” value on canine TRPM8 (setting [8]) was 97%.
The corresponding values for “N-(3-Bromo-thieno[3,2-b]pyridin-2-yl)-N-(3,4-difluoro-benzyl)-benzenesulfonamide and N-(3-chloro-thieno[3,2-b]pyridin-2-yl)-N-(3,4-difluoro-benzyl)-benzenesulfonamide [Compound 145]” are 14.1 nM and 100%.
Regarding “N-(3-Chloro-benzo[b]thiophen-2-yl)-N-(4,4,4-trifluoro-butyl)-4-(5-oxo-4,5-dihydro-[1,2,4]oxadiazol-3-yl)-benzenesulfonamide [Compound 515]”, the “% Inh @ 0.2 (μM)” value at canine TRPM8 (setting [2]) was 49%.
Regarding “N-(3-Cyclopentyl-benzo[b]thiophen-2-yl)-N-(4-fluoro-3-trifluoromethyl-benzyl)-4-carbomethoxy-benzenesulfonamide [Compound 501]”, the “% Inh @ 0.2 (μM)” value on canine TRPM8 (setting [2]) is recorded as 31%.
Turning to “N-(3-Methyl-benzo[b]thiophen-2-yl)-N-(4-fluoro-3-trifluoromethyl-benzyl)-4-pyrazol-1-yl-benzenesulfonamide [Compound 332]”, the IC50 at canine TRPM8 (setting [1]) came out at 7 nM. Besides, the “% Inh @ 0.2 (μM)” value at canine TRPM8 (setting [2]) is recorded as 100%.
The corresponding values for “N-(3-Methyl-benzo[b]thiophen-2-yl)-N-(4-fluoro-3-trifluoromethyl-benzyl)-4-thiomethyl-pyridin-3-yl-sulfonamide [Compound 378]” are 97 nM and 85%.
“N-(3-Methyl-benzo[b]thiophen-2-yl)-N-(5,5,5-trifluoro-pentyl)-4-(5-oxo-4,5-dihydro-[1,2,4]oxadiazol-3-yl)-pyrid-3-ylsulfonamide [Compound 809]”: the “% Inh @ 0.2 (μM)” value at canine TRPM8 (setting [6]) turned out to be 103%. The IC50 on canine TRPM8 (setting [7]) stood at 6.9 nM.
For the compound “N-(3-Methyl-benzo[b]thiophen-2-yl)-N-(5,5,5-trifluoro-pentyl)-4-thiomorpholin-4-yl-benzenesulfonamide [Compound 749]”, on canine TRPM8 (setting [2]), the “% Inh @ 0.2 (μM)” value is listed as 64%.
In the case of “N-(3-Methyl-benzo[b]thiophen-2-yl)-N-(cyclopropyl-ethyl)-4-morpholino-3-pyridyl-sulfonamide [Compound 798]”, the “% Inh @ 0.2 (μM)” value on canine TRPM8 (setting [6]) was 102%. At canine TRPM8 (setting [7]), the IC50 came out at 35.9 nM.
“N-(Benzo[b]thiophen-2-yl)-N-(3,3,3-trifluoro-propyl)-4-(5-oxo-4,5-dihydro-[1,2,4]oxadiazol-3-yl)-benzenesulfonamide [Compound 597]”: at canine TRPM8 (setting [2]), the “% Inh @ 0.2 (μM)” value amounted to 25%.

A word on the IC50: it is the midpoint of a concentration-inhibition curve. What is called ED50 is the dose at which the effect has come halfway, by size or by number of responders.
